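Assay format: 96-well plates, 48-hour exposure. GI50 marks 50% less growth.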 Calls of active or inactive are those of the source. No stated cut-off is given here; in the data, active = GI50 up to about 1.1 µM and inactive = higher.
Tests used:
Test in all cases: NCI-60 cell line screen, 48 h
TK-10 = system: TK-10
SK-MEL-2 = system: SK-MEL-2
MDA-N = system: MDA-N
NCI-H522 = system: NCI-H522
CCRF-CEM = system: CCRF-CEM
ACHN = system: ACHN
COLO 205 = system: COLO 205
SN12C = system: SN12C
A549 = system: A549
SW-620 = system: SW-620
SR = system: SR
NCI-H23 = system: NCI-H23
NCI-H226 = system: NCI-H226
KM12 = system: KM12
SK-MEL-28 = system: SK-MEL-28
NCI/ADR-RES = system: NCI/ADR-RES
NCI-H460 = system: NCI-H460
SK-MEL-5 = system: SK-MEL-5
U-251 = system: U-251
OVCAR-4 = system: OVCAR-4
PC-3 = system: PC-3
Malme-3M = system: Malme-3M
HOP-92 = system: HOP-92
OVCAR-8 = system: OVCAR-8
EKVX = system: EKVX
SF-539 = system: SF-539
786-0 = system: 786-0
RXF 393 = system: RXF 393
OVCAR-3 = system: OVCAR-3
RPMI-8226 = system: RPMI-8226
SF-268 = system: SF-268
HCC 2998 = system: HCC 2998
HT-29 = system: HT-29
HCT-116 = system: HCT-116
HOP-62 = system: HOP-62
MDA-MB-435 = system: MDA-MB-435
SF-295 = system: SF-295
K562 = system: K562
MOLT-4 = system: MOLT-4
HL-60 = system: HL-60
MDA-MB-231 = system: MDA-MB-231
CAKI-1 = system: CAKI-1
T47D = system: T47D
LOX IMVI = system: LOX IMVI
SNB-19 = system: SNB-19
Hs-578T = system: Hs-578T
M14 = system: M14
A498 = system: A498
OVCAR-5 = system: OVCAR-5
UO-31 = system: UO-31
SK-OV-3 = system: SK-OV-3
IGROV-1 = system: IGROV-1
HCT-15 = system: HCT-15
DU-145 = system: DU-145
UACC-257 = system: UACC-257
MCF7 = system: MCF7
SNB-75 = system: SNB-75
BT-549 = system: BT-549
UACC-62 = system: UACC-62

For `COC(=O)[C@@H]1CN(C(=O)CCc2ccccc2)C(=O)N1`, the GI50 (TK-10) was > 100 µM (inactive), the GI50 (SK-MEL-2) was > 100 µM (inactive) and the GI50 (MDA-N) was > 100 µM (inactive). The GI50 (NCI-H522) was > 100 µM (inactive), the GI50 (CCRF-CEM) was > 100 µM (inactive) and the GI50 (ACHN) was > 100 µM (inactive). For the same molecule, the GI50 (COLO 205) was > 100 µM (inactive), the GI50 (SN12C) was > 100 µM (inactive) and the GI50 (A549) was > 100 µM (inactive). The GI50 (SW-620) was > 100 µM (inactive), the GI50 (SR) was > 100 µM (inactive) and the GI50 (NCI-H23) was > 100 µM (inactive). For the same molecule, the GI50 (NCI-H226) was > 100 µM (inactive), the GI50 (KM12) was > 100 µM (inactive) and the GI50 (SK-MEL-28) was > 100 µM (inactive). The GI50 (NCI/ADR-RES) was > 100 µM (inactive), the GI50 (NCI-H460) was 86.1 µM (inactive) and the GI50 (SK-MEL-5) was > 100 µM (inactive). For the same molecule, the GI50 (U-251) was > 100 µM (inactive), the GI50 (OVCAR-4) was > 100 µM (inactive) and the GI50 (PC-3) was > 100 µM (inactive). The GI50 (Malme-3M) was > 100 µM (inactive), the GI50 (HOP-92) was > 100 µM (inactive) and the GI50 (OVCAR-8) was > 100 µM (inactive). For the same molecule, the GI50 (EKVX) was > 100 µM (inactive), the GI50 (SF-539) was > 100 µM (inactive) and the GI50 (786-0) was > 100 µM (inactive). For the same molecule, the GI50 (RXF 393) was > 100 µM (inactive), the GI50 (OVCAR-3) was > 100 µM (inactive) and the GI50 (RPMI-8226) was > 100 µM (inactive). The GI50 (SF-268) was > 100 µM (inactive), the GI50 (HCC 2998) was > 100 µM (inactive) and the GI50 (HT-29) was > 100 µM (inactive). The GI50 (HCT-116) was > 100 µM (inactive), the GI50 (HOP-62) was > 100 µM (inactive) and the GI50 (MDA-MB-435) was > 100 µM (inactive). For the same molecule, the GI50 (SF-295) was > 100 µM (inactive), the GI50 (K562) was > 100 µM (inactive) and the GI50 (MOLT-4) was > 100 µM (inactive). The GI50 (HL-60) was > 100 µM (inactive), the GI50 (MDA-MB-231) was > 100 µM (inactive) and the GI50 (CAKI-1) was > 100 µM (inactive). The GI50 (T47D) was > 100 µM (inactive), the GI50 (LOX IMVI) was > 100 µM (inactive) and the GI50 (SNB-19) was > 100 µM (inactive). The GI50 (Hs-578T) was > 100 µM (inactive), the GI50 (M14) was > 100 µM (inactive) and the GI50 (A498) was > 100 µM (inactive). The GI50 (OVCAR-5) was > 100 µM (inactive), the GI50 (UO-31) was 50.2 µM (inactive) and the GI50 (SK-OV-3) was > 100 µM (inactive). For the same molecule, the GI50 (IGROV-1) was > 100 µM (inactive), the GI50 (HCT-15) was > 100 µM and the GI50 (DU-145) was > 100 µM (inactive). The GI50 (UACC-257) was > 100 µM (inactive).

`CC(=O)NNC1=NN(C(C)=O)C2(S1)C(=O)Nc1ccc(Br)cc12` (stereo unspecified) was tested, and the GI50 (TK-10) was > 100 µM (inactive), the GI50 (SK-MEL-2) was > 100 µM (inactive) and the GI50 (NCI-H522) was > 100 µM (inactive). For the same molecule, the GI50 (CCRF-CEM) was > 100 µM (inactive), the GI50 (ACHN) was > 100 µM (inactive) and the GI50 (COLO 205) was > 10 µM (inactive). For the same molecule, the GI50 (SN12C) was > 100 µM (inactive), the GI50 (A549) was > 100 µM (inactive) and the GI50 (SR) was > 100 µM (inactive). The GI50 (NCI-H23) was > 100 µM (inactive), the GI50 (NCI-H226) was > 100 µM (inactive) and the GI50 (KM12) was > 100 µM (inactive). The GI50 (SK-MEL-28) was > 100 µM (inactive), the GI50 (NCI/ADR-RES) was > 100 µM (inactive) and the GI50 (NCI-H460) was 93.3 µM (inactive). The GI50 (SK-MEL-5) was > 100 µM (inactive), the GI50 (U-251) was > 100 µM (inactive) and the GI50 (OVCAR-4) was 78.3 µM (inactive). For the same molecule, the GI50 (PC-3) was > 100 µM (inactive), the GI50 (MCF7) was > 100 µM (inactive) and the GI50 (Malme-3M) was > 100 µM (inactive). The GI50 (HOP-92) was 65.5 µM (inactive), the GI50 (OVCAR-8) was > 100 µM (inactive) and the GI50 (EKVX) was > 100 µM (inactive). The GI50 (SF-539) was > 100 µM (inactive), the GI50 (786-0) was > 100 µM (inactive) and the GI50 (RXF 393) was > 100 µM (inactive). The GI50 (OVCAR-3) was > 100 µM (inactive), the GI50 (RPMI-8226) was > 100 µM (inactive) and the GI50 (SF-268) was > 100 µM (inactive). The GI50 (HCC 2998) was > 100 µM (inactive), the GI50 (HT-29) was > 100 µM (inactive) and the GI50 (HCT-116) was > 100 µM (inactive). The GI50 (HOP-62) was > 100 µM (inactive), the GI50 (MDA-MB-435) was > 100 µM (inactive) and the GI50 (SNB-75) was > 100 µM (inactive). For the same molecule, the GI50 (SF-295) was > 100 µM (inactive), the GI50 (K562) was > 100 µM (inactive) and the GI50 (MOLT-4) was > 100 µM (inactive). The GI50 (HL-60) was > 100 µM (inactive), the GI50 (MDA-MB-231) was > 100 µM (inactive) and the GI50 (CAKI-1) was > 100 µM (inactive). The GI50 (BT-549) was 59.6 µM (inactive), the GI50 (T47D) was 22 µM (inactive) and the GI50 (LOX IMVI) was > 100 µM (inactive). For the same molecule, the GI50 (SNB-19) was > 100 µM (inactive), the GI50 (Hs-578T) was > 100 µM (inactive) and the GI50 (M14) was > 100 µM (inactive). The GI50 (A498) was > 100 µM (inactive), the GI50 (OVCAR-5) was > 100 µM (inactive) and the GI50 (UO-31) was 39.4 µM (inactive). The GI50 (IGROV-1) was 35.9 µM (inactive), the GI50 (HCT-15) was > 100 µM and the GI50 (UACC-62) was 79.1 µM (inactive). For the same molecule, the GI50 (DU-145) was > 100 µM (inactive) and the GI50 (UACC-257) was > 100 µM (inactive).

— ChEMBL document CHEMBL1201862, “PubChem BioAssay data set” (2004)
